Source: patent publication US20070049564A1 (Wyeth, priority 2005, published 2007)
Like-named read-outs stand apart in the source and are kept apart here.

Tests used:
E. coli GC 3226 = assay: MIC, broth microdilution; conditions: Escherichia coli, GC3226, E. coli GC 3226
E. coli GC 2234 = assay: MIC, broth microdilution; conditions: Escherichia coli, GC2234, E. coli GC 2234
Staph. aureus Smith = assay: In vivo activity (oral, iv; ED50) against Staph. aureus Smith in mice
Experimental: Representative examples of compounds of Formula I were tested for the oral efficacy using S. aureus Smith in mice.

E. coli GC 2203 = assay: MIC, broth microdilution; conditions: Escherichia coli, GC2203, E. coli GC 2203
S. aureus GC 1131 = assay: MIC, broth microdilution; conditions: Staphylococcus aureus, GC1131, S. aureus GC 1131
S. agalactiae GC 4564 = assay: MIC, broth microdilution
E. coli GC 2271 = assay: MIC, broth microdilution; conditions: Escherichia coli, GC2271, E. coli GC 2271
E. coli GC 2272 = assay: MIC, broth microdilution; conditions: Escherichia coli, GC2272, E. coli GC 2272
E. faecalis GC 4555 = assay: MIC, broth microdilution; conditions: Enterococcus faecalis, GC4555, E. faecalis GC 4555
S. pneumoniae* GC 4465 = assay: MIC, broth microdilution; conditions: Streptococcus pneumoniae, S. pneumoniae* GC 4465
E. coli GC 2236 = assay: MIC, broth microdilution; conditions: Escherichia coli, GC2236, E. coli GC 2236
E. faecalis GC 2265 = assay: MIC, broth microdilution; conditions: Enterococcus faecalis, GC2265, E. faecalis GC 2265
S. pneumoniae+ GC 4465 = assay: MIC, broth microdilution; conditions: Streptococcus pneumoniae, S. pneumoniae+ GC 4465
Experimental: Antimicrobial susceptibility testing. The in vitro activities of the antibiotics are determined by the broth microdilution method as recommended by the National Committee for Clinical Laboratory Standards (NCCLS) (1). Mueller-Hinton II broth (MHBII)(BBL Cockeysville, Md.) is the medium employed in the testing procedures. Microtiter plates containing serial dilutions of each antimicrobial agent are inoculated with each organism to yield the appropriate density (10^5 CFU/ml) in a 100 μl final volume. The plates are incubated for 18-22 hours at 35° C. in ambient air.
Representative compounds were first incubated in mouse serum for an hour prior to the in vitro testing against a panel of selected gram-positive and gram-negative bacteria strains. All compounds were also pre-incubated in water for an hour prior to testing as control.

E. faecalis GC 2267 = assay: MIC, broth microdilution; conditions: Enterococcus faecalis, GC2267, E. faecalis GC 2267
E. coli GC 4559 = assay: MIC, broth microdilution; conditions: Escherichia coli, GC4559, E. coli GC 4559
S. pyogenes GC 4563 = assay: MIC, broth microdilution; conditions: Streptococcus pyogenes, GC4563, S. pyogenes GC 4563
S. aureus GC 6335 = assay: MIC, broth microdilution; conditions: Staphylococcus aureus, GC6335, S. aureus GC 6335
E. coli GC 2232 = assay: MIC, broth microdilution; conditions: Escherichia coli, GC2232, E. coli GC 2232
S. epidermidis GC 4935 = assay: MIC, broth microdilution; conditions: Staphylococcus epidermidis, GC4935, S. epidermidis GC 4935
P. aeruginosa GC 2214 = assay: MIC, broth microdilution; conditions: Pseudomonas aeruginosa, GC2214, P. aeruginosa GC 2214
[1] = Staphylococcus aureus, in Mus musculus, po, read-out: ED50 Staph Smith SOD
[2] = iv, read-out: ED50 Staph Smith SIV
[3] = Streptococcus agalactiae, GC4564, S. agalactiae GC 4564, Mouse Serum pre-incubation
[4] = Streptococcus agalactiae, GC4564, S. agalactiae GC 4564, Water pre-incubation

CCCN(CC(=O)Nc1cc(N(C)C)c2c(c1O)C(=O)C1=C(O)[C@]3(O)C(=O)C(C(N)=O)=C(O)[C@@H](N(C)C)[C@@H]3C[C@@H]1C2)C(=O)OCOC(=O)C(C)(C)C [Example 9, ({[(2-{[(5aR,6aS,7S,10aS)-9-(aminocarbonyl)-4,7-bis(dimethylamino)-1,8,10a,11-tetrahydroxy-10,12-dioxo-5,5a,6,6a,7,10,10a,12-octahydrotetracen-2-yl]amino}-2-oxoethyl)(propyl)amino]carbonyl}oxy)methyl pivalate]
< 0.06 µg/mL: MIC (S. aureus GC 1131; Mouse Serum pre-incubation) | MIC (S. pneumoniae* GC 4465; Mouse Serum pre-incubation) | MIC (S. pneumoniae* GC 4465; Water pre-incubation) | MIC (S. pyogenes GC 4563; Mouse Serum pre-incubation) | MIC (S. pyogenes GC 4563; Water pre-incubation)
> 64 µg/mL: MIC (P. aeruginosa GC 2214; Water pre-incubation)
8 µg/mL: MIC (E. coli GC 2234; Water pre-incubation) | MIC (E. coli GC 2271; Water pre-incubation) | MIC (E. coli GC 2272; Water pre-incubation) | MIC (E. coli GC 2236; Water pre-incubation) | MIC (E. coli GC 4559; Water pre-incubation) | MIC (E. coli GC 2232; Water pre-incubation)
1 µg/mL: MIC (E. coli GC 2236; Mouse Serum pre-incubation) | MIC (E. faecalis GC 2265; Mouse Serum pre-incubation) | MIC (E. faecalis GC 2267; Mouse Serum pre-incubation) | MIC (E. coli GC 4559; Mouse Serum pre-incubation) | MIC (E. coli GC 2232; Mouse Serum pre-incubation) | MIC (S. epidermidis GC 4935; Water pre-incubation)
2 µg/mL: MIC (E. coli GC 3226; Mouse Serum pre-incubation) | MIC (E. faecalis GC 4555; Water pre-incubation) | MIC (E. faecalis GC 2265; Water pre-incubation) | MIC (S. pneumoniae+ GC 4465; Mouse Serum pre-incubation) | MIC (S. pneumoniae+ GC 4465; Water pre-incubation) | MIC (E. faecalis GC 2267; Water pre-incubation)
11.3 mg/kg: ED50 (Staph. aureus Smith; [1])
0.5 µg/mL: MIC (E. coli GC 2234; Mouse Serum pre-incubation) | MIC (E. coli GC 2203; Mouse Serum pre-incubation) | MIC (E. coli GC 2271; Mouse Serum pre-incubation) | MIC (E. coli GC 2272; Mouse Serum pre-incubation) | MIC (E. faecalis GC 4555; Mouse Serum pre-incubation) | MIC (S. aureus GC 6335; Water pre-incubation)
0.32 mg/kg: ED50 (Staph. aureus Smith; [2])
4 µg/mL: MIC (E. coli GC 2203; Water pre-incubation)
0.25 µg/mL: MIC (S. aureus GC 1131; Water pre-incubation) | MIC (S. agalactiae GC 4564; [4]) | MIC (S. aureus GC 6335; Mouse Serum pre-incubation) | MIC (S. epidermidis GC 4935; Mouse Serum pre-incubation)
0.12 µg/mL: MIC (S. agalactiae GC 4564; [3])
16 µg/mL: MIC (E. coli GC 3226; Water pre-incubation) | MIC (P. aeruginosa GC 2214; Mouse Serum pre-incubation)

CCCN(CC(=O)Nc1cc(N(C)C)c2c(c1O)C(=O)C1=C(O)[C@]3(O)C(=O)C(C(N)=O)=C(O)[C@@H](N(C)C)[C@@H]3C[C@@H]1C2)C(=O)OCOC(=O)C(C)C [Example 10, ({[(2-{[(5aR,6aS,7S,10aS)-9-(aminocarbonyl)-4,7-bis(dimethylamino)-1,8,10a,11-tetrahydroxy-10,12-dioxo-5,5a,6,6a,7,10,10a,12-octahydrotetracen-2-yl]amino}-2-oxoethyl)(propyl)amino]carbonyl}oxy)methyl 2-methylpropanoate]
0.25 µg/mL: MIC (E. coli GC 2271; Mouse Serum pre-incubation) | MIC (S. aureus GC 6335; Mouse Serum pre-incubation)
1 µg/mL: MIC (E. faecalis GC 4555; Water pre-incubation) | MIC (E. faecalis GC 2265; Mouse Serum pre-incubation) | MIC (E. faecalis GC 2265; Water pre-incubation) | MIC (S. pneumoniae+ GC 4465; Mouse Serum pre-incubation) | MIC (S. pneumoniae+ GC 4465; Water pre-incubation) | MIC (E. faecalis GC 2267; Mouse Serum pre-incubation) | MIC (S. epidermidis GC 4935; Water pre-incubation)
2 µg/mL: MIC (E. faecalis GC 2267; Water pre-incubation)
16 µg/mL: MIC (E. coli GC 3226; Water pre-incubation) | MIC (E. coli GC 4559; Water pre-incubation) | MIC (P. aeruginosa GC 2214; Mouse Serum pre-incubation)
8 µg/mL: MIC (E. coli GC 2234; Water pre-incubation) | MIC (E. coli GC 2203; Water pre-incubation) | MIC (E. coli GC 2271; Water pre-incubation) | MIC (E. coli GC 2272; Water pre-incubation) | MIC (E. coli GC 2236; Water pre-incubation) | MIC (E. coli GC 2232; Water pre-incubation)
0.36 mg/kg: ED50 (Staph. aureus Smith; [2])
> 64 µg/mL: MIC (P. aeruginosa GC 2214; Water pre-incubation)
< 0.06 µg/mL: MIC (S. agalactiae GC 4564; [3]) | MIC (S. pneumoniae* GC 4465; Mouse Serum pre-incubation) | MIC (S. pneumoniae* GC 4465; Water pre-incubation) | MIC (S. pyogenes GC 4563; Mouse Serum pre-incubation) | MIC (S. pyogenes GC 4563; Water pre-incubation)
0.12 µg/mL: MIC (S. aureus GC 1131; Mouse Serum pre-incubation) | MIC (S. aureus GC 1131; Water pre-incubation) | MIC (S. agalactiae GC 4564; [4])
13.6 mg/kg: ED50 (Staph. aureus Smith; [1])
0.5 µg/mL: MIC (E. coli GC 3226; Mouse Serum pre-incubation) | MIC (E. coli GC 2234; Mouse Serum pre-incubation) | MIC (E. coli GC 2203; Mouse Serum pre-incubation) | MIC (E. coli GC 2272; Mouse Serum pre-incubation) | MIC (E. faecalis GC 4555; Mouse Serum pre-incubation) | MIC (E. coli GC 2236; Mouse Serum pre-incubation) | MIC (E. coli GC 4559; Mouse Serum pre-incubation) | MIC (S. aureus GC 6335; Water pre-incubation) | MIC (E. coli GC 2232; Mouse Serum pre-incubation) | MIC (S. epidermidis GC 4935; Mouse Serum pre-incubation)

CCCN(CC(=O)Nc1cc(N(C)C)c2c(c1O)C(=O)C1=C(O)[C@]3(O)C(=O)C(C(N)=O)=C(O)[C@@H](N(C)C)[C@@H]3C[C@@H]1C2)C(=O)OCOC(=O)Cc1ccccc1 [Example 11, ({[(2-{[(5aR,6aS,7S,10aS)-9-(aminocarbonyl)-4,7-bis(dimethylamino)-1,8,10a,11′-tetrahydroxy-10,12-dioxo-5,5a,6,6a,7,10,10a,12-octahydrotetracen-2-yl]amino}-2-oxoethyl)(propyl)amino]carbonyl}oxy)methyl phenylacetate]
<0.06 UG/ML: MIC (S. agalactiae GC 4564; S. agalactiae GC 4564, Water pre-incubation)
16 µg/mL: MIC (E. coli GC 2234; Water pre-incubation) | MIC (E. coli GC 2203; Water pre-incubation) | MIC (E. coli GC 2232; Water pre-incubation) | MIC (P. aeruginosa GC 2214; Mouse Serum pre-incubation)
< 0.06 µg/mL: MIC (S. agalactiae GC 4564; Streptococcus agalactiae, GC4564) | MIC (S. pneumoniae* GC 4465; Mouse Serum pre-incubation) | MIC (S. pneumoniae* GC 4465; Water pre-incubation) | MIC (S. pyogenes GC 4563; Mouse Serum pre-incubation) | MIC (S. pyogenes GC 4563; Water pre-incubation)
0.59 mg/kg: ED50 (Staph. aureus Smith; [2])
1 µg/mL: MIC (E. faecalis GC 4555; Water pre-incubation) | MIC (S. aureus GC 6335; Mouse Serum pre-incubation) | MIC (S. aureus GC 6335; Water pre-incubation) | MIC (E. coli GC 2232; Mouse Serum pre-incubation) | MIC (S. epidermidis GC 4935; Mouse Serum pre-incubation)
32 µg/mL: MIC (E. coli GC 4559; Water pre-incubation)
2 µg/mL: MIC (E. faecalis GC 2265; Mouse Serum pre-incubation) | MIC (S. pneumoniae+ GC 4465; Mouse Serum pre-incubation) | MIC (S. pneumoniae+ GC 4465; Water pre-incubation) | MIC (E. faecalis GC 2267; Mouse Serum pre-incubation) | MIC (E. faecalis GC 2267; Water pre-incubation) | MIC (S. epidermidis GC 4935; Water pre-incubation)
4 µg/mL: MIC (E. coli GC 2271; Water pre-incubation) | MIC (E. coli GC 2272; Water pre-incubation) | MIC (E. faecalis GC 2265; Water pre-incubation)
8 µg/mL: MIC (E. coli GC 2236; Water pre-incubation)
30.3 mg/kg: ED50 (Staph. aureus Smith; [1])
> 64 µg/mL: MIC (E. coli GC 3226; Water pre-incubation) | MIC (P. aeruginosa GC 2214; Water pre-incubation)
0.25 µg/mL: MIC (E. coli GC 2203; Mouse Serum pre-incubation) | MIC (S. aureus GC 1131; Mouse Serum pre-incubation) | MIC (S. aureus GC 1131; Water pre-incubation) | MIC (E. coli GC 2271; Mouse Serum pre-incubation) | MIC (E. coli GC 2272; Mouse Serum pre-incubation)
0.5 µg/mL: MIC (E. coli GC 3226; Mouse Serum pre-incubation) | MIC (E. coli GC 2234; Mouse Serum pre-incubation) | MIC (E. faecalis GC 4555; Mouse Serum pre-incubation) | MIC (E. coli GC 2236; Mouse Serum pre-incubation) | MIC (E. coli GC 4559; Mouse Serum pre-incubation)
